Assay results as given in patent US10800789B2, “Antiviral compounds” (Gilead Pharmasset LLC, priority 2012, dated 2020).
Where two headings read alike, the source gives them in different places.

Tests used:
[1] = test system: stable HCV 1b RLuc replicon cells (dicistronic genotype 1b Con1 replicon); assay: Renilla luciferase HCV replicon reporter assay, genotype 1b; assay type: cell-based; settings: stable 1b Con1 RLuc replicon cells, 72 hours, read-out: 1b
Procedure, shortened: (§1)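 First, 3-fold serial dilutions of compound went onto replicon cells, DMSO serving as no-inhibition control and ITMN-191 at >100×EC50 as positive control. Next came 72 h incubation, lysis and Renilla luciferase measurement. Finally, EC50 was calculated by non-linear regression; replicons covered genotypes 1a H77, 1b Con1, 2a JFH-1 (L31) and J6-NS5A chimera (M31).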

[2] = test system: NS5A chimeric genotype 1b Con1 replicon with genotype 4a ED43 strain NS5A gene; assay: Replicon assay, genotype 4a NS5A chimera; assay type: cell-based, HCV
[3] = test system: NS5A chimeric genotype 1b Con1 replicon with genotype 3a S52 strain NS5A gene; assay: Replicon assay, genotype 3a NS5A chimera; assay type: cell-based, HCV
[4] = test system: Q30R in genotype 1a NS5A (1a Pi-Rluc replicon, Huh-7-derived cured-51 cells); assay: Replicon assay against resistance mutant 1a Q30R; assay type: cell-based, HCV
Procedure, shortened: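 Q30R introduced by site-directed mutagenesis into the 1a Pi-RLuc replicon; replicon RNA transiently transfected into cured-51 cells. Cells treated with 3-fold serially diluted compound for 72 h, then lysed and Renilla luciferase measured; EC50 by non-linear regression.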

[5] = test system: NS5A chimeric genotype 2a JFH-1 replicon with genotype 2b MD2b-1 strain NS5A gene (M31 present); assay: Replicon assay, genotype 2b NS5A chimera; assay type: cell-based, HCV
Procedure, shortened: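 EC50 was fitted by non-linear regression to Renilla luciferase signal after 72 h of exposure to 3-fold serially diluted compound (10 mM DMSO stocks). Controls were DMSO (none) and ITMN-191 above 100×EC50 (full). Chimeric 2a replicons were used either stable or transiently transfected into Huh-Lunet cells.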

[6] = test system: NS5A chimeric genotype 2a JFH-1 replicon with genotype 2a J6 strain NS5A gene (M31 present); assay: Replicon assay, genotype 2a J6 NS5A chimera; assay type: cell-based, HCV
Procedure, shortened: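 Antiviral EC50 was determined in HCV replicon cells (stable RLuc lines for 1a H77, 1b Con1, 2a JFH-1 with NS5A L31; J6 NS5A chimera with M31) treated 72 h with compound. Renilla luciferase was then quantified.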

[7] = test system: stable HCV 1a RLuc replicon cells (dicistronic genotype 1a H77 replicon); assay: Renilla luciferase HCV replicon reporter assay, genotype 1a; assay type: cell-based; settings: stable 1a H77 RLuc replicon cells
Procedure, shortened: as §1

[8] = test system: stable HCV 2a JFH-1 Rluc replicon cells (L31 present in NS5A); assay: Renilla luciferase HCV replicon reporter assay, genotype 2a JFH-1; assay type: cell-based
Procedure, shortened: as §1

[9] = IV and PO single dose pharmacokinetic studies in SD rats; assay type: in vivo, male Sprague-Dawley (SD) rats; settings: male SD rats, PO 2 mg/kg vs IV infusion 1 mg/kg; for bioavailability: Sprague-Dawley, rat, plasma, read-out: Rat % F
Procedure, shortened: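 Fasted male Sprague-Dawley rats (250-300g, n=3/group) were given 1 mg/kg IV as a 30-min jugular infusion (5% ethanol/35% PEG 400/water pH 2.0) or 2 mg/kg by oral gavage (5% ethanol/55% PEG 400/citrate pH 2.2). Plasma was sampled to 24 h and analysed by LC/MS/MS. Non-compartmental parameters were derived, and %F was calculated from the oral/IV AUC ratio.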

[10] = Hepatitis C virus, read-out: 4a (s) (nM), genotype 4a NS5A chimeric replicon, stable replicon cells (s)
[11] = Hepatitis C virus, read-out: 4a (s), (s), activity range
[12] = Hepatitis C virus, read-out: 3a (s) (nM), genotype 3a NS5A chimeric replicon, stable replicon cells (s)
[13] = Hepatitis C virus, read-out: 3a (s), (s), activity range
[14] = Hepatitis C virus, read-out: 1a Q30R
[15] = Hepatitis C virus, read-out: 1a Q30R (nM)
[16] = Hepatitis C virus, 2BS, read-out: 2b (s), stably replicating replicon cells (s), activity range
[17] = Hepatitis C virus, read-out: 2b (s) (nM), genotype 2b MD2b-1 NS5A chimeric replicon (M31), stably replicating replicon cells (s)
[18] = Hepatitis C virus, read-out: 2b (t) (nM), genotype 2b MD2b-1 NS5A chimeric replicon (M31), transiently transfected (t)
[19] = Hepatitis C virus, read-out: 2b (t), transiently transfected (t) into Huh-Lunet cells, activity range
[20] = Hepatitis C virus, read-out: 2a J6 (t) (nM), genotype 2a J6 NS5A chimeric replicon (M31), transiently transfected (t) into Huh-Lunet cells
[21] = Hepatitis C virus, read-out: 2a J6 (t), transiently transfected (t) into Huh-Lunet cells, activity range
[22] = Hepatitis C virus, 72 h, activity range
[23] = Hepatitis C virus, read-out: 2a JFH (nM), genotype 2a JFH-1 replicon (L31 in NS5A), stable cells
[24] = Hepatitis C virus, read-out: 2a JFH, stable 2a JFH-1 Rluc replicon cells, L31 in NS5A, activity range

Structure (SMILES) | EC50 ([1]; Hepatitis C virus, 72 h) [pM] | EC50 [2, 10] [nM] | EC50 [2, 11] [nM] | EC50 [3, 12] [nM] | EC50 [3, 13] [nM] | EC50 [4, 14] [nM] | EC50 [4, 15] [nM] | EC50 [5, 16] [nM] | EC50 [5, 17] [nM] | EC50 [5, 18] [nM] | EC50 [5, 19] [nM] | EC50 [6, 20] [nM] | EC50 [6, 21] [nM] | EC50 ([7]; Hepatitis C virus, 72 h) [pM] | EC50 [7, 22] [pM] | EC50 [8, 23] [nM] | EC50 [8, 24] [nM] | bioavailability [9] [%] | further results
COC(=O)N[C@H](C(=O)N1[C@@H](C)CC[C@H]1c1ncc(-c2ccc3c(c2)COc2cc4c(ccc5nc([C@@H]6CC[C@H](C)N6C(=O)[C@@H](NC(=O)OC)[C@@H](C)OC)[nH]c54)cc2-3)[nH]1)C(C)C [DX, Methyl {(2S)-1-[(2S,4S)-2-(5-{2-[(2S,5S)-1-{(2S,3R)-3-methoxy-2-[(methoxycarbonyl)amino]butanoyl}-5-methylpyrrolidin-2-yl]-1,11-dihydroisochromeno[4′,3′:6,7]naphtho[1,2-d]imidazol-9-yl}-1H-imidazol-2-yl)-5-methylpyrrolidin-1-yl]-3-methyl-1-oxobutan-2-yl}carbamate] | – | – | – | – | – | – | – | – | – | – | – | – | – | – | – | – | – | – | EC50 [1]: 31 pM; EC50 ([2]; (s), activity range, read-out: 4a (s)): < 0.1 nM; EC50 ([2]; genotype 4a NS5A chimeric replicon, stable replicon cells (s), read-out: 4a (s)): 0.018 nM; EC50 ([3]; (s), activity range, read-out: 3a (s)): < 0.1 nM; EC50 ([3]; genotype 3a NS5A chimeric replicon, stable replicon cells (s), read-out: 3a (s)): 0.048 nM; EC50 ([4]; Q30R mutant replicon transiently transfected into Huh-7-derived cured-51 cells, activity range, read-out: 1a Q30R): 0.1 to 0.999 nM; EC50 ([4]; Q30R mutant replicon transiently transfected into Huh-7-derived cured-51 cells, read-out: 1a Q30R): 0.138 nM; EC50 ([5]; genotype 2b MD2b-1 NS5A chimeric replicon (M31), stably replicating replicon cells (s), read-out: 2b (s)): 0.201 nM; EC50 ([5]; genotype 2b MD2b-1 NS5A chimeric replicon (M31), transiently transfected (t), read-out: 2b (t)): 0.06 nM; EC50 ([5]; stably replicating replicon cells (s), activity range, read-out: 2b (s)): 0.1 to 0.999 nM; EC50 ([5]; transiently transfected (t) into Huh-Lunet cells, activity range, read-out: 2b (t)): < 0.1 nM; EC50 ([6]; genotype 2a J6 NS5A chimeric replicon (M31), transiently transfected (t) into Huh-Lunet cells, read-out: 2a J6 (t)): 0.109 nM; EC50 ([6]; transiently transfected (t) into Huh-Lunet cells, activity range, read-out: 2a J6 (t)): 0.1 to 0.999 nM; EC50 ([7]; 72 hours): 21 pM; EC50 ([7]; 72 hours, activity range): < 100 pM; EC50 ([8]; genotype 2a JFH-1 replicon (L31 in NS5A), stable cells, read-out: 2a JFH): 0.019 nM; EC50 ([8]; stable 2a JFH-1 Rluc replicon cells, L31 in NS5A, activity range, read-out: 2a JFH): < 0.1 nM; Rat % F ([9]; oral bioavailability): 21.3%
COC(=O)NC(C(=O)N1[C@@H](C)CC[C@H]1c1nc2ccc3cc4c(cc3c2[nH]1)OCc1cc(-c2cnc([C@@H]3CC[C@H](C)N3C(=O)[C@@H](NC(=O)OC)C3CCOCC3)[nH]2)ccc1-4)C1CCOCC1 (stereo partly drawn) [EB, Methyl [(1 S)-2-[(2S,5S)-2-(5-{2-[(2S,5S)-1-{[(methoxycarbonyl)amino](tetrahydro-2H-pyran-4-yl)acetyl}-5-methylpyrrolidin-2-yl]-1,11-dihydroisochromeno[4′,3′:6,7]naphtho[1,2-d]imidazol-9-yl}-1H-imidazol-2-yl)-5-methylpyrrolidin-1-yl]-2-oxo-1-(tetrahydro-2H-pyran-4-yl)ethyl]carbamate] | 51 | 0.014 | < 0.1 | 0.075 | < 0.1 | < 0.1 | 0.042 | < 0.1 | 0.038 | 0.092 | < 0.1 | 0.012 | < 0.1 | 24 | < 100 | 0.012 | < 0.1 | 4.2 | –
CC[C@H](C)C(NC(=O)OC)C(=O)N1[C@@H](C)CC[C@H]1c1nc2ccc3cc4c(cc3c2[nH]1)OCc1cc(-c2cnc([C@@H]3CC[C@H](C)N3C(=O)[C@@H](NC(=O)OC)[C@@H](C)OC)[nH]2)ccc1-4 (stereo partly drawn) [EH, methyl{(3S)-1-[(2S,5S)-2-(9-{2-[(2S,5S)-1-{(2S,3R)-3-methoxy-2-[(methoxycarbonyl)amino]butanoyl}-5-methylpyrrolidin-2-yl]-1H-imidazol-5-yl}-1,11-dihydroisochromeno[4′,3′:6,7]naphtho[1,2-d]imidazol-2-yl)-5-methylpyrrolidin-1-yl]-3-methyl-1-oxopentan-2-yl}carbamate] | 15 | 0.006 | < 0.1 | 0.022 | < 0.1 | < 0.1 | 0.082 | 0.1 to 0.999 | 0.153 | – | – | 0.086 | < 0.1 | 11 | < 100 | 0.013 | < 0.1 | 15.8 | EC50 ([3]; Hepatitis C virus, read-out: 3a (t) (nM), genotype 3a NS5A chimeric replicon, transiently transfected (t)): 0.024 nM; EC50 ([3]; Hepatitis C virus, read-out: 3a (t), transiently transfected (t) into Huh-Lunet cells, activity range): < 0.1 nM
COC(=O)N[C@H](C(=O)N1[C@@H](C)CC[C@H]1c1ncc(-c2ccc3c(c2)COc2cc4c(ccc5nc([C@@H]6CC[C@H](C)N6C(=O)[C@@H](NC(=O)OC)[C@@H](C)OC)[nH]c54)cc2-3)[nH]1)C(C)C [FA, Methyl [(2S)-1-{(2S,5S)-2-[5-(2-{(2S,5S)-1-[N-(methoxycarbonyl)-O-methyl-L-threonyl]-5-methylpyrrolidin-2-yl}-1,11-dihydroisochromeno[4′,3′:6,7]naphtho[1,2-d]imidazol-9-yl)-1H-imidazol-2-yl]-5-methylpyrrolidin-1-yl}-3-methyl-1-oxobutan-2-yl]carbamate] | 14 | 0.011 | < 0.1 | 0.034 | < 0.1 | < 0.1 | 0.046 | 0.1 to 0.999 | 0.13 | 0.036 | < 0.1 | 0.033 | < 0.1 | 11 | < 100 | 0.014 | < 0.1 | 13.5 | –
CC[C@H](C)[C@H](NC(=O)OC)C(=O)N1[C@H](c2ncc(-c3ccc4c(c3)COc3cc5c(ccc6nc([C@@H]7CC[C@H](C)N7C(=O)[C@@H](NC(=O)OC)C7CCOCC7)[nH]c65)cc3-4)[nH]2)C[C@@H]2CCC[C@@H]21 [IL] | 34 | 0.04 | < 0.1 | 0.083 | < 0.1 | < 0.1 | – | 0.1 to 0.999 | 0.143 | 0.025 | – | – | – | 28 | < 100 | 0.019 | < 0.1 | 40.9 | –
